Laboratory results from patent US5132313A, “Non-competitive NMDA receptor antagonists and methods for their use” (priority 1989, dated 1992).

Target: PCP binding sites of the NMDA receptor complex
Set-up: species or system rat
Details: for IC50: displacing (+)-[3H]MK-801 bound to rat brain homogenates, 0.5-1 nM radioligand, 100 μM glutamate, 30 μM glycine, 2 h room temperature, pH 7.4, mean of three experiments in duplicate ±SEM; for Relative Potency (%): relative to PCP = 100%, displacing (+)-[3H]MK-801; for binding potency compared with corresponding S enantiomer: R enantiomers 1, 3, 5, 7 versus 2, 4, 6, 8

| SMILES | IC50 [nM] | Relative Potency (%) | binding potency compared with corresponding S enantiomer (in words) | binding difference between enantiomeric pair of compounds 3 and 4 (compound 3 (R) versus compound 4 (S)) [fold] | binding potency compared with PCP (in words) |
| --- | --- | --- | --- | --- | --- |
| c1csc(C2(N3CCCCC3)CCCCC2)c1 [TCP, 1-[1-(2-thienyl)-cyclohexyl]-piperidine, reference compound] | 11 ± 1 | 318 | – | – | – |
| N[C@]12CC=CC[C@H]1Cc1ccccc12 [Compound 1] | 114 ± 14 | 31 | more potent in binding than the corresponding enantiomers of S stereochemistry | – | – |
| N[C@]12CCCC[C@H]1Cc1ccccc12 [Compound 3] | 19 ± 1 | 184 | more potent in binding than the corresponding enantiomers of S stereochemistry | 73 | more potent in binding than PCP |
| N[C@@]12CC=CC[C@@H]1Cc1ccccc12 [Compound 2] | 2240 ± 135 | 2 | – | – | – |
| CCN[C@]12CCCC[C@H]1Cc1ccccc12 [Compound 7] | 68 ± 7 | 51 | more potent in binding than the corresponding enantiomers of S stereochemistry | – | – |
| CCN[C@@]12CCCC[C@@H]1Cc1ccccc12 [Compound 8] | 546 ± 40 | 6 | – | – | – |
| N[C@@]12CCCC[C@@H]1Cc1ccccc12 [Compound 4] | 1390 ± 49 | 3 | – | – | – |
| c1ccc(C2(N3CCCCC3)CCCCC2)cc1 [PCP, phencyclidine, reference compound] | 35 ± 1 | 100 | – | – | – |
